Biological target: T1, purified human Factor XIa (Homo sapiens, UniProt P03951)
T1 construct: purchased Haematologic Technologies
Test: Factor XIa enzyme inhibition assay (chromogenic substrate S-2366), Ki
Type: biochemical
Conditions: substrate S-2366, pH 7.4
Protocol: The effectiveness of compounds of the present invention as inhibitors of the coagulation Factors XIa, VIIa, IXa, Xa, XIIa, plasma kallikrein, thrombin, chemytrypsin or trypsin can be determined using a relevant purified serine protease, respectively, and an appropriate synthetic substrate. The rate of hydrolysis of the chromogenic or fluorogenic substrate by the relevant serine protease was measured both in the absence and presence of compounds of the present invention. […] A decrease in the rate of absorbance or fluorescence change in the presence of inhibitor is indicative of enzyme inhibition. Such methods are known to one skilled in the art. The results of this assay are expressed as the inhibitory constant, Ki.
Factor XIa determinations were made in 50 mM HEPES buffer at pH 7.4 containing 145 mM NaCl, 5 mM KCl, and 0.1% PEG 8000 (polyethylene glycol; JT Baker or Fisher Scientific). Determinations were made using purified human Factor XIa at a final concentration of […] (Haematologic Technologies) and the synthetic substrate S-2366 (pyroGlu-Pro-Arg-pNA; CHROMOGENIX® or AnaSpec) at a concentration of 0.0002-0.001 M.
Values of Ki were determined by allowing the protease to react with the substrate in the presence of the inhibitor. Reactions were allowed to go for periods of 20-180 minutes (depending on the protease) and the velocities (rate of absorbance or fluorescence change versus time) were measured. The following relationships were used to calculate Ki values: (Vmax*S)/(Km+S) (vo−vs)/vs=I/(Ki*(1+S/Km)) for a competitive inhibitor with one binding site; or vs/vo=A+(B−A)/(1+(IC50/(I)^n)); and Ki=IC50/(1+S/Km) for a competitive inhibitor where: […]

T1 sequence (P03951 388-625 limits assumed): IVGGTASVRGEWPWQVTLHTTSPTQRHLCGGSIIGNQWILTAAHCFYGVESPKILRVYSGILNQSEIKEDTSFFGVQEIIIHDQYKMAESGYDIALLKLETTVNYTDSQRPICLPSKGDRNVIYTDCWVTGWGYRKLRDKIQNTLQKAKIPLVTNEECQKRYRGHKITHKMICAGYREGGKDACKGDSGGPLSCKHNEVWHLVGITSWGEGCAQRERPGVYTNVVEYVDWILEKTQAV
T1 sequence (P03951 19-387 partner limits assumed): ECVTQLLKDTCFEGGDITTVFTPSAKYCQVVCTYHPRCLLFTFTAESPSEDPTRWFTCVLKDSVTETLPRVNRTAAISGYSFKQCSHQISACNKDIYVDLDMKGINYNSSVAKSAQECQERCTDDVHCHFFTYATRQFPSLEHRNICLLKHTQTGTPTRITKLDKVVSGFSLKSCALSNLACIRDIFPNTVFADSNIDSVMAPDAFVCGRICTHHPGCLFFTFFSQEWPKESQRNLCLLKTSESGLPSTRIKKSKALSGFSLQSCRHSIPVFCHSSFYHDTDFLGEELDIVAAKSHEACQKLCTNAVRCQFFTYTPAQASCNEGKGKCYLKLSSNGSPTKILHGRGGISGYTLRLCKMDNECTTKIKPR

Row | SMILES | Ki
1 | O=C(Nc1ccc(N2CCOCC2=O)cc1)[C@H](Cc1ccccc1)n1cnc(-c2cc(Cl)ccc2-n2cc(Cl)nn2)cc1=O [Example 37, (S)-2-(4-(5-chloro-2-(4-chloro-1H-1,2,3-triazol-1-yl)phenyl)-6-oxopyrimidin-1(6H)-yl)-N-(4-(3-oxomorpholino)phenyl)-3-phenylpropanamide] | 155 nM
2 | O=C1NCc2cc(F)c(NC(=O)[C@H](Cc3ccccc3)n3cnc(-c4cc(Cl)ccc4-n4cc(Cl)nn4)cc3=O)cc21 [Example 38, (S)-2-(4-(5-chloro-2-(4-chloro-1H-1,2,3-triazol-1-yl)phenyl)-6-oxopyrimidin-1(6H)-yl)-N-(6-fluoro-3-oxoisoindolin-5-yl)-3-phenylpropanamide] | 98.4 nM
3 | Cc1ncn(-c2ccc(NC(=O)[C@H](Cc3ccccc3)n3cnc(-c4cc(Cl)ccc4-n4cc(Cl)nn4)cc3=O)cn2)n1 [Example 39, (S)-2-(4-(5-chloro-2-(4-chloro-1H-1,2,3-triazol-1-yl)phenyl)-6-oxopyrimidin-1(6H)-yl)-N-(6-(3-methyl-1H-1,2,4-triazol-1-yl)pyridin-3-yl)-3-phenylpropanamide] | 110 nM
4 | COC(=O)c1cc(NC(=O)[C@H](Cc2ccccc2)n2cnc(-c3cc(Cl)ccc3-n3cc(Cl)nn3)cc2=O)cn1C [Example 40, methyl (S)-4-(2-(4-(5-chloro-2-(4-chloro-1H-1,2,3-triazol-1-yl)phenyl)-6-oxopyrimidin-1(6H)-yl)-3-phenylpropanamido)-1-methyl-1H-pyrrole-2-carboxylate] | 172 nM

Second part, the compound after the results:

Row | Ki | SMILES
5 | 117 nM | O=C(Nc1ccc(OC2CCOCC2)cc1)[C@H](Cc1ccccc1)n1cnc(-c2cc(Cl)ccc2-n2cc(Cl)nn2)cc1=O [Example 41, (S)-2-(4-(5-chloro-2-(4-chloro-1H-1,2,3-triazol-1-yl)phenyl)-6-oxopyrimidin-1(6H)-yl)-3-phenyl-N-(4-((tetrahydro-2H-pyran-4-yl)oxy)phenyl)propanamide]
6 | 196 nM | CCOC(=O)c1ccc(NC(=O)[C@H](Cc2ccccc2)n2cnc(-c3cc(Cl)ccc3-n3cc(Cl)nn3)cc2=O)cc1 [Example 42, ethyl (S)-4-(2-(4-(5-chloro-2-(4-chloro-1H-1,2,3-triazol-1-yl)phenyl)-6-oxopyrimidin-1(6H)-yl)-3-phenylpropanamido)benzoate]
7 | 208 nM | N#Cc1ccc(NC(=O)[C@H](Cc2ccccc2)n2cnc(-c3cc(Cl)ccc3-n3cc(Cl)nn3)cc2=O)cn1 [Example 43, (S)-2-(4-(5-chloro-2-(4-chloro-1H-1,2,3-triazol-1-yl)phenyl)-6-oxopyrimidin-1(6H)-yl)-N-(6-cyanopyridin-3-yl)-3-phenylpropanamide]
8 | 395 nM | CCn1nc(C)cc1NC(=O)[C@H](Cc1ccccc1)n1cnc(-c2cc(Cl)ccc2-n2cc(Cl)nn2)cc1=O [Example 44, (S)-2-(4-(5-chloro-2-(4-chloro-1H-1,2,3-triazol-1-yl)phenyl)-6-oxopyrimidin-1(6H)-yl)-N-(1-ethyl-3-methyl-1H-pyrazol-5-yl)-3-phenylpropanamide]
9 | 88.2 nM | COC(=O)Cc1ccc(NC(=O)[C@H](Cc2ccccc2)n2cnc(-c3cc(Cl)ccc3-n3cc(Cl)nn3)cc2=O)cc1 [Example 45, methyl (S)-2-(4-(2-(4-(5-chloro-2-(4-chloro-1H-1,2,3-triazol-1-yl)phenyl)-6-oxopyrimidin-1(6H)-yl)-3-phenylpropanamido)phenyl)acetate]
10 | 8.3 nM | O=C(Nc1ccc2[nH]cnc2c1)[C@H](Cc1ccccc1)n1cnc(-c2cc(Cl)ccc2-n2cc(Cl)nn2)cc1=O [Example 46, (S)-N-(1H-benzo[d]imidazol-5-yl)-2-(4-(5-chloro-2-(4-chloro-1H-1,2,3-triazol-1-yl)phenyl)-6-oxopyrimidin-1(6H)-yl)-3-phenylpropanamide]
11 | 154 nM | O=C(Nc1ccc2[nH]ccc2n1)[C@H](Cc1ccccc1)n1cnc(-c2cc(Cl)ccc2-n2cc(Cl)nn2)cc1=O [Example 47, (S)-2-(4-(5-chloro-2-(4-chloro-1H-1,2,3-triazol-1-yl)phenyl)-6-oxopyrimidin-1(6H)-yl)-3-phenyl-N-(1H-pyrrolo[3,2-b]pyridin-5-yl)propanamide]

From patent publication US10336730B2, “Substituted glycine derived FXIA inhibitors” (BRISTOL-MYERS SQUIBB COMPANY, priority 2015, dated 2019)
